Data taken from PMC5441580, “GPR40 partial agonist MK-2305 lower fasting glucose in the Goto Kakizaki rat via suppression of endogenous glucose production” (PLoS ONE, 2017).
“And” between values parts separate entries of the source, which are not always exact repeats. Equal entries are not always repeated.

Columns and labels:
Rat PPARα = biological target: T1, Rat PPARα (Rattus norvegicus, UniProt P37230); assay: cell-based nuclear receptor profiling (Indigo Biosciences), PPARα
T1 sequence (P37230 1-468): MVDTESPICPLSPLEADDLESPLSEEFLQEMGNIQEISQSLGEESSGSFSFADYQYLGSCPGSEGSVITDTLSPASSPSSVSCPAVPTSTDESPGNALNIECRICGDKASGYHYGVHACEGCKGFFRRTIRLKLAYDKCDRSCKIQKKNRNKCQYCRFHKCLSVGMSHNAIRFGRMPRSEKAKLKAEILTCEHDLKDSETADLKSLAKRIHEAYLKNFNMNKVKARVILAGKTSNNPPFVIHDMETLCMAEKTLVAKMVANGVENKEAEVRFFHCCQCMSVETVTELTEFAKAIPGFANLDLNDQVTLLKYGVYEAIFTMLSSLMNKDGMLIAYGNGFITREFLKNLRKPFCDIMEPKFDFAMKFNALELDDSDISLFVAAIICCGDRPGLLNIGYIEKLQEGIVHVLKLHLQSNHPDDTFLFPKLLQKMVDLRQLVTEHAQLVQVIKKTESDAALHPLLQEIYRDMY
Method: Rat PPARα, PPARδ, and PPARγ activities were determined by Indigo Biosciences (State College, PA) cell-based nuclear receptor profiling service.

WKY rats = assay: endogenous glucose production in vivo, 2H/13C dual tracer, acute treatment, WKY rats; parameters: species or system rat
Method: [The procedure below names another organism; the source lists this organism under the same test.] To evaluate whether MK-2305 treatment produced an effect on EGP in vivo, a ^2H/^13C dual tracer approach was used to calculate EGP and its contributing sources. On the day of the study, GK rats were bled via tail snip, and blood glucose was measured via glucometer. Ambient glucose was measured at 8 A.M. and used to sort animals into treatment groups (n = 8 per group). 0.9% NaCl salinated D2O (Sigma-Aldrich, St. Louis, MO) was administered to all animals via IP injection at dose volume of 20 ml/kg. Animals were then placed in clean cages and food was removed. After a 5 hour fast, blood glucose was measured and animals were dosed PO with MK-2305 at 10 mg/kg (5 ml/kg) or vehicle (0.5% methylcellulose) immediately followed by 50 mg/kg [U-^13C] glucose (Sigma-Aldrich) IP at 5 ml/kg. Blood was collected via tail snip at time points from 60–150 min post treatment to measure blood glucose as well as endogenous (^12C-glucose) and exogenous (^13C-glucose) via GCMS. Following the last tail blood collection, rats were anesthetized with isoflurane and cardiac blood was collected into K2EDTA tubes (Becton, Dickinson and Co., Franklin Lakes, NJ).
The serially collected blood samples were analyzed for ^13C-glucose enrichment using GC-MS analysis. The % ^13C glucose enrichments were then combined with the total glucose readings to calculate the concentration of ^13C-glucose, and these values were modeled with a two-compartment model of whole body glucose metabolism to calculate the average EGP for the period from 0–150 minutes.
Terminal blood samples were analyzed for relative ^2H enrichment in plasma glucose using the monoacetone glucose method. Briefly, samples were extracted with 70% perchloric acid and centrifuged at 25,000 rcf for 10 min at 4°C. The supernatant was collected and the pH was adjusted to 6–8 using KOH. The samples were then lyophilized overnight. To convert plasma glucose to monoacetone glucose (MAG), acetone and concentrated sulfuric acid were added to the lyophilized samples and stirred for 4 hours at room temperature. Water was then added and the pH adjusted to 2.0 with 3M Na2CO3. Samples were stirred moderately for 18 hours at room temperature, the pH was adjusted to 7 with 3M Na2CO3, and the samples were completely dried by speed vacuum concentration. The resulting MAG samples were then extracted in hot ethyl acetate, dried overnight under a stream of N2 gas, purified using Discovery DSC-18 SPE columns (6 ml, 1 g bed weight), and freeze dried. Purified MAG samples were solubilized in 180 μl 90% acetonitrile for ^2H NMR analysis which was performed using the lock channel of a 950 MHz Bruker NMR spectrometer (David H Murdock Research Institute, Kannapolis, NC). Acquisition parameters were as follows: 90° pulse, D1 = 1 s, ^1H broadband decoupling, NS = 3600 averages, acquisition time ~ 1 hr. The ^2H NMR spectra of the MAG samples were then analyzed using in–house developed Matlab (The Mathworks Inc, Natick, MA) to model the NMR peaks with a Lorentzian line shape, and the results were used to calculate integrals for each of the seven NMR resonances in the MAG spectrum. Peaks 2, 5, and 6s were then used to calculate the relative sources of EGP (i.e. gluconeogenesis from TCA cycle substrates, gluconeogenesis from triose phosphates, and glycogenolysis) and these values were combined with the total EGP measurement to calculate absolute fluxes of glucose production.

[1] = acute treatment, 10 mg/kg, individual animals

**Q.** How did the EC50 (Rat PPARα) turn out when `O=C1NC(=O)C(C2CCOc3cc(Oc4ccc(C(F)(F)F)cc4Cl)ccc32)S1` (centres unmarked) [MK-2305] was run?
**A.** > 10 µM

**Q.** What about the “% Activation” value (Rat PPARα; @ 10 μM) of the same molecule?
**A.** -0.2 @ 10 μM % and -0.24%

**Q.** What about the “% Effect” value (Rat PPARα; Dose 0.309 nM) of the same molecule?
**A.** -0.03%

**Q.** And the “% Effect” value (Rat PPARα; Dose 0.981 nM)?
**A.** -0.05%

**Q.** What about the “% Effect” value (Rat PPARα; Dose 3.11 nM) of the same molecule?
**A.** -0.11%

**Q.** What about the “% Effect” value (Rat PPARα; Dose 9.85 nM) of the same molecule?
**A.** -0.1%

**Q.** What about the “% Effect” value (Rat PPARα; Dose 31.2 nM) of the same molecule?
**A.** -0.09%

**Q.** And the “% Effect” value (Rat PPARα; Dose 99 nM)?
**A.** -0.06%

**Q.** What about the “% Effect” value (Rat PPARα; Dose 314 nM) of the same molecule?
**A.** -0.09%

**Q.** And the “% Effect” value (Rat PPARα; Dose 995 nM)?
**A.** -0.13%

**Q.** What about the “% Effect” value (Rat PPARα; Dose 3155 nM) of the same molecule?
**A.** -0.18%

**Q.** And the “% Effect” value (Rat PPARα; Dose 10000 nM)?
**A.** -0.24%

**Q.** And the “effects on EGP” value (WKY rats; acute)?
**A.** not statistically significant

**Q.** What about the “Glucose Production, GNG Glycerol” value (WKY rats; [1]) of the same molecule?
**A.** 2.7 umol/kg/min (2×) and 2.4 umol/kg/min and 1.6 umol/kg/min

**Q.** What about the “Glucose Production, GNG TCA” value (WKY rats; [1]) of the same molecule?
**A.** 8 µmol/kg/min and 8.7 µmol/kg/min and 7.8 µmol/kg/min and 6.4 µmol/kg/min

**Q.** And the “Glucose Production, GNG Total” value (WKY rats; [1])?
**A.** 10.7 µmol/kg/min and 11.2 µmol/kg/min and 10.5 µmol/kg/min and 8.1 µmol/kg/min

**Q.** And the “Glucose Production, Glycogenolysis” value (WKY rats; [1])?
**A.** 6.9 µmol/kg/min and 4.7 µmol/kg/min and 6.8 µmol/kg/min and 3.4 µmol/kg/min
